Laboratory results as given in patent US9273006B2, “Anabolic compounds for treating and preventing bone loss diseases” (SYDDANSK UNIVERSITET, priority 2012, dated 2016).
Where “and” joins values, the source holds several entries; their conditions need not be identical. Equal entries are not always repeated. Where two headings read alike, the source gives them in different places.

Legend:
hMSC-TERT [1] = tested on: hMSC-TERT
hMSC-TERT [2] = assay: In vitro osteoblast differentiation in OIM (ALP activity, alizarin red, qRT-PCR); assay type: cell-based, human; settings: co-treatment with H-8, hMSC
Protocol: F) H-8 enhances ALP activity of hMSC, in the absence of serum.
Adding H-8 (25 μM) to the osteogenic induction media, during 9-days in vitro hMSC osteogenic differentiation, enhanced expression of osteoblastic markers as shown by qRT-PCR analysis. **P≦0.05, ***P≦0.005 (significant difference as compared to vehicle).
H-8 was added (25 μM) to the OIM at different time points during 12-days period.
In order to confirm the results obtained from the initial screen, the present inventors incubated hMSC-TERT and primary human bone marrow derived MSC (hBMSC) in osteogenic induction medium (OIM) supplemented with H-8 (dose range 1-30 μM) or vehicle. […] To determine the stage of differentiation at which the effect of H-8 was most apparent, the present inventors added H-8 (25 μM) to the OIM at different time points during 12-days period.

TGFβ signaling in hMSC = assay: TGFβ signaling, qRT-PCR and western blot; assay type: cell-based, human; settings: co-treatment with H-8
Source text: (C): Western blot analysis of p-Smad and p-Akt reveled that the enahcing effect of H-8 on osteoblast differentiation of hMSC is mediated through activation of non-canonical TGFβ signaling. (D): SB431542, a selective inhibitor of TGWU activity abolished the enhanced phosphorylation of Akt and smad2 after H-8 treatment.
To investigate the mechanisms of the enhancing effects of H-8 on osteoblast differentiation of hMSC, the present inventors performed a DNA microarray analysis of hMSC-TERT under osteogenic culture conditions, in the presence or absence of the H-8 (25 μM). […] In order to identify the pathway that is primarily regulated by H-8 treatment, phosphorylation of canonical and non-canonical TGFβ signaling components was evaluated 5 minutes and 15 minutes after H-8 treatment. The inventors also evaluated the effect of TGFβ3 treatment on H-8 induced phosphorylation of Smad2 and Akt. […] This observation further confirms that the enhancing effect of H-8 on osteoblast differentiation of hMSC is mediated through regulation of TGFβ signaling.

[3] = 1 μM inhibitor in osteogenic inducing media, 6 days after induction, hMSC-TERT
[4] = 10 μM inhibitor in osteogenic inducing media, 6 days after induction, hMSC-TERT

| Molecule | Relative ALP activity (hMSC-TERT [1]; [3]) | Relative ALP activity (hMSC-TERT [1]; [4]) | effect on H-8 enhanced osteoblast differentiation (ALP activity, matrix mineralization) (hMSC-TERT [2]) | effect on H-8 induced Smad2 and Akt phosphorylation (TGFβ signaling in hMSC) | Relative ALP activity (hMSC-TERT [1]) |
| --- | --- | --- | --- | --- | --- |
| Cc1ccc(-c2nn(C(C)(C)C)c3ncnc(N)c23)cc1 [PP1] | 0.9626 | 0.5665 |  |  |  |
| CC(C)(C)n1nc(-c2ccc(Cl)cc2)c2c(N)ncnc21 [PP2] | 0.8276 | 0.4269 |  |  |  |
| Oc1cc(O)cc(/C=C/c2ccc(O)c(O)c2)c1 [Piceatannol] | 0.783 | 0.4885 |  |  |  |
| O.O.O=c1c(O)c(-c2ccc(O)c(O)c2)oc2cc(O)cc(O)c12 [Quercetin dihydrate] | 1.001 | 0.8354 |  |  |  |
| N#C/C(=C\c1cc(Cl)cc(Cl)c1)c1cccnc1 [RG-14620] | 0.8302 | 1.024 |  |  |  |
| CO[C@H]1C[C@@H]2CC[C@@H](C)[C@@](O)(O2)C(=O)C(=O)N2CCCC[C@H]2C(=O)O[C@H]([C@H](C)C[C@@H]2CC[C@@H](O)[C@H](OC)C2)CC(=O)[C@H](C)/C=C(\C)[C@@H](O)[C@@H](OC)C(=O)[C@H](C)C[C@H](C)/C=C/C=C/C=C/1C [Rapamycin] | 0.509 | 0.6057 |  |  |  |
| Cn1cc(C2=C(c3cn(CCCSC(=N)N)c4ccccc34)C(=O)NC2=O)c2ccccc21 [Ro 31-8220] | 0.3607 | Toxic |  |  |  |
| CC[C@H](CO)Nc1nc(NCc2ccccc2)c2ncn(C(C)C)c2n1 [Roscovitine] | 0.9865 | 0.3918 |  |  |  |
| CC(=O)c1c(O)c(C)c(O)c(Cc2c(O)c3c(c(C(=O)/C=C/c4ccccc4)c2O)OC(C)(C)C=C3)c1O [Rottlerin] | 0.3874 | Toxic |  |  |  |
| NC(=O)c1ccc(-c2nc(-c3ccccn3)c(-c3ccc4c(c3)OCO4)[nH]2)cc1 [SB431542] |  |  | blunted the enhancing effect of H-8 on osteoblast differentiation of hMSC | abolished the enhancing effect of H-8 on Smad2 and Akt phosphorylation |  |
| Oc1ccc(-c2nc(-c3ccc(F)cc3)c(-c3ccncc3)[nH]2)cc1 [SB-202190] | 0.7708 | 0.2703 |  |  |  |
| C[S+]([O-])c1ccc(-c2nc(-c3ccc(F)cc3)c(-c3ccncc3)[nH]2)cc1 (stereo not shown) [SB-203580] | 0.824 | 0.458 |  |  |  |
| Oc1c2ccccc2c2c3c(cccc13)N=N2 [SP 600125] | 0.5978 | 0.2913 |  |  |  |
| CC(C)c1cc(/C=C(\C#N)C(=O)NCCCc2ccccc2)cc(C(C)C)c1O [SU1498] | 0.8711 | 0.7853 |  |  |  |
| CN(C)c1ccc(/C=C2\C(=O)Nc3ccccc32)cc1 [SU 4312] | 0.7481 | 0.5349 |  |  |  |
| CCCCCCCCCCCCC/C=C/[C@@H](O)[C@@H](N)CO [Sphingosine] | 1.195 | Toxic |  |  |  |
| CN[C@@H]1C[C@H]2O[C@@](C)([C@@H]1OC)n1c3ccccc3c3c4c(c5c6ccccc6n2c5c31)C(=O)NC4 [Staurosporine] | TOXIC | Toxic |  |  |  |
| CC1=C(O)C(=O)[C@@H]2O[C@@H]2C1=O [Terreic acid] | 0.2721 | 0.338 |  |  |  |

| Molecule | Relative ALP activity (hMSC-TERT [1]; [3]) | Relative ALP activity (hMSC-TERT [1]; [4]) | effect on H-8 enhanced osteoblast differentiation (ALP activity, matrix mineralization) (hMSC-TERT [2]) | effect on H-8 induced Smad2 and Akt phosphorylation (TGFβ signaling in hMSC) | Relative ALP activity (hMSC-TERT [1]) |
| --- | --- | --- | --- | --- | --- |
| CC(C)(C)c1cc(C=C(C#N)C#N)cc(C(C)(C)C)c1O [Tyrphostin9] | 0.3388 | Toxic |  |  |  |
| N#CC(C#N)=Cc1ccc(O)c(O)c1 [Tyrphostin 23] | 0.9904 | 0.7067 |  |  |  |
| N#CC(C#N)=Cc1cc(O)c(O)c(O)c1 [Tyrphostin 25] | 0.9397 | 0.8233 |  |  |  |
| N#C/C(=C\c1ccc(O)c(O)c1)C(N)=O [Tyrphostin 46] | 1.179 | 0.9029 |  |  |  |
| N#C/C(=C\c1ccc(O)c(O)c1)C(N)=S [Tyrphostin 47] | 0.901 | 1.005 |  |  |  |
| N#CC(C#N)=C(N)/C(C#N)=C/c1cc(O)c(O)c(O)c1 [Tyrphostin 51] | 0.8997 | 0.8566 |  |  |  |
| N#CC(C#N)=Cc1cc(O)c(O)c([N+](=O)[O-])c1 [Tyrphostin AG 1288] | 0.8684 | 0.802 |  |  |  |
| Cc1cc2ncc(-c3ccccc3)nc2cc1C [Tyrphostin AG 1295] | 1.007 | 0.3556 |  |  |  |
| COc1cc2ncnc(Nc3cccc(Cl)c3)c2cc1OC [Tyrphostin AG 1478] | 1.097 | Toxic |  |  |  |
| N#CC(=C(/N)Sc1ccccc1N)/C(C#N)=C(\N)Sc1ccccc1N [U-0126] |  |  |  |  | 0.3485 and 0.281 |
| COC[C@H]1OC(=O)c2coc3c2[C@@]1(C)C1=C(C3=O)[C@@H]2CCC(=O)[C@@]2(C)C[C@H]1OC(C)=O [Wortmannin] | 0.8301 | 0.9122 |  |  |  |
| C[C@@H](N)[C@H]1CC[C@H](C(=O)Nc2ccncc2)CC1 [Y-27632] | 0.9848 | 0.4092 |  |  |  |
| Cc1ccc(NC(=O)c2cccc(N(C)C)c2)cc1NC(=O)c1ccc(O)cc1 [ZM 336372] | 0.869 | 0.5373 |  |  |  |
| C=CC(=O)c1ccc2ccccc2c1 [ZM 449829] | 0.9444 | 0.8946 |  |  |  |
| Cn1cnc2nc(NCCO)nc(NCc3ccccc3)c21 [iso-Olomoucine] | 1.084 | 0.9318 |  |  |  |
| BML-265 | 0.3954 | Toxic |  |  |  |
| Indirubin-3′-monoxime | 0.2589 | 0.3697 |  |  |  |
| TGFβ3: Transforming growth factor β3, added to hMSC together with H-8 (protein, UniProt P10600 301-412, looked up) Transforming growth factor …: ALDTNYCFRNLEENCCVRPLYIDFRQDLGWKWVHEPKGYYANFCSGPCPYLRSADTTHSTVLGLYNTLNPEASASPCCVPQDLEPLTILYYVGRTPKVEQLSNMVVKSCKCS |  |  |  | enhancing effect on H-8 induced Akt and Smad2 phosphorylation |  |
